Values of other authors, collected in paper PMC8513935.

Assays:
[1] = log P octanol/water from commercial databases, averaged (the ESI); details: Octanol (wet), 25 C
[2] = derived by the authors as gas->solvent minus gas->water (a hypothetical dry solvent; the ESI), not a two-phase measurement
[3] = experimental, compiled by the authors from the literature (the ESI cites the sources)

CC(C)SC(C)C
log K of transfer, water to solvent [1]: 2.52 log10 K
log K of transfer, water to solvent ([2]; Hexadecane, 25 C): 2.65 log10 K
log K of transfer, gas to solvent ([3]; Hexadecane, 25 C): 3.54 log10 K
log K of transfer, gas to solvent ([3]; Water, 25 C): 0.89 log10 K

ClC(Cl)(Cl)Cl
log K of transfer, water to solvent [1]: 2.83 log10 K
log K of transfer, water to solvent ([2]; 1,2-Dichloroethane, 25 C): 3.1 log10 K
log K of transfer, water to solvent ([2]; 2-Methylpropan-2-ol, 25 C): 2.8 log10 K
log K of transfer, water to solvent ([2]; Acetone, 25 C): 3.1 log10 K
log K of transfer, water to solvent ([2]; Acetonitrile, 25 C): 2.74 log10 K
log K of transfer, water to solvent ([2]; Butan-1-ol, 25 C): 2.9 log10 K
log K of transfer, water to solvent ([2]; Butanone, 25 C): 3.1 log10 K
log K of transfer, water to solvent ([2]; CCl4, 25 C): 3.3 log10 K
log K of transfer, water to solvent ([2]; Chloroform, 25 C): 3.31 log10 K
log K of transfer, water to solvent ([2]; Cyclohexanone, 25 C): 3.23 log10 K
log K of transfer, water to solvent ([2]; Di-n-butyl ether, 25 C): 3.11 log10 K
log K of transfer, water to solvent ([2]; Diethyl Ether, 25 C): 3.28 log10 K
log K of transfer, water to solvent ([2]; Ethanol, 25 C): 2.81 log10 K
log K of transfer, water to solvent ([2]; Hexadecane, 25 C): 2.88 log10 K
log K of transfer, water to solvent ([2]; Hexan-1-ol, 25 C): 2.87 log10 K
log K of transfer, water to solvent ([2]; Hexane, 25 C): 3.09 log10 K
log K of transfer, water to solvent ([2]; Methanol, 25 C): 2.72 log10 K
log K of transfer, water to solvent ([2]; Octan-1-ol(dry), 25 C): 2.85 log10 K
log K of transfer, water to solvent ([2]; Propan-1-ol, 25 C): 2.81 log10 K
log K of transfer, water to solvent ([2]; Propionitrile, 25 C): 2.92 log10 K
log K of transfer, water to solvent ([2]; Tetrahydrofuran, 25 C): 3.47 log10 K
log K of transfer, gas to solvent ([3]; 1,2-Dichloroethane, 25 C): 3.04 log10 K
log K of transfer, gas to solvent ([3]; 2-Methylpropan-2-ol, 25 C): 2.74 log10 K
log K of transfer, gas to solvent ([3]; Acetonitrile, 25 C): 2.68 log10 K
log K of transfer, gas to solvent ([3]; Butan-1-ol, 25 C): 2.84 log10 K
log K of transfer, gas to solvent ([3]; Butanone, 25 C): 3.04 log10 K
log K of transfer, gas to solvent ([3]; CCl4, 25 C): 3.24 log10 K
log K of transfer, gas to solvent ([3]; Chloroform, 25 C): 3.25 log10 K
log K of transfer, gas to solvent ([3]; Cyclohexanone, 25 C): 3.17 log10 K
log K of transfer, gas to solvent ([3]; Di-n-butyl ether, 25 C): 3.05 log10 K
log K of transfer, gas to solvent ([3]; Diethyl Ether, 25 C): 3.22 log10 K
log K of transfer, gas to solvent ([3]; Ethanol, 25 C): 2.75 log10 K
log K of transfer, gas to solvent ([3]; Hexadecane, 25 C): 2.82 log10 K
log K of transfer, gas to solvent ([3]; Hexan-1-ol, 25 C): 2.81 log10 K
log K of transfer, gas to solvent ([3]; Hexane, 25 C): 3.03 log10 K
log K of transfer, gas to solvent ([3]; Methanol, 25 C): 2.66 log10 K
log K of transfer, gas to solvent ([3]; Octan-1-ol, 25 C): 2.79 log10 K
log K of transfer, gas to solvent ([3]; Propan-1-ol, 25 C): 2.75 log10 K
log K of transfer, gas to solvent ([3]; Propanone, 25 C): 3.04 log10 K
log K of transfer, gas to solvent ([3]; Propionitrile, 25 C): 2.86 log10 K
log K of transfer, gas to solvent ([3]; Tetrahydrofuran, 25 C): 3.41 log10 K
log K of transfer, gas to solvent ([3]; Water, 25 C): -0.06 log10 K

Cc1cccc(C)n1
log K of transfer, water to solvent [1]: 1.68 log10 K
log K of transfer, water to solvent ([2]; Benzene, 25 C): 1.32 log10 K
log K of transfer, water to solvent ([2]; Chloroform, 25 C): 2.31 log10 K
log K of transfer, water to solvent ([2]; Cyclohexane, 25 C): 0.67 log10 K
log K of transfer, water to solvent ([2]; Hexadecane, 25 C): 0.39 log10 K
log K of transfer, gas to solvent ([3]; Benzene, 25 C): 4.69 log10 K
log K of transfer, gas to solvent ([3]; Chloroform, 25 C): 5.68 log10 K
log K of transfer, gas to solvent ([3]; Cyclohexane, 25 C): 4.04 log10 K
log K of transfer, gas to solvent ([3]; Hexadecane, 25 C): 3.76 log10 K
log K of transfer, gas to solvent ([3]; Water, 25 C): 3.37 log10 K
